Experimental data: the supplement of paper PMC10307832

Assays:
Experiment in all cases: relative viability (nuclei count vs DMSO), 5 days (fraction); higher = more cells survive
[1] = compound: Cc1ccc(F)c(NC(=O)Nc2ccc(-c3cccc4[nH]nc(N)c34)cc2)c1 [Linifanib] + CCNC(=O)c1noc(-c2cc(C(C)C)c(O)cc2O)c1-c1ccc(CN2CCOCC2)cc1 [Luminespib] (partner 0.01 µM)
Method in brief: (§1)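 A single step with final 0.05% Triton X-100, 1% formaldehyde and 1 ug/ml Hoechst fixed the cells and stained nuclei 5 days after treatment. Lung cancer cell lines in 1536-well plates had been treated by pin tool the day after seeding with one drug alone or a fixed anchor-drug dose plus five library-drug doses (not always all listed) in √10 steps, and nuclei were counted on 4× images. Relative viability is the ratio of nuclei in treated wells to nuclei in vehicle wells, taken as the median of duplicate plates.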

[2] = compound: Cc1ccc(F)c(NC(=O)Nc2ccc(-c3cccc4[nH]nc(N)c34)cc2)c1 [Linifanib] + Cc1nc(Nc2ncc(C(=O)Nc3c(C)cccc3Cl)s2)cc(N2CCN(CCO)CC2)n1 [Dasatinib] (partner 0.075 µM)
Method in brief: as §1

[3] = compound: Cc1ccc(F)c(NC(=O)Nc2ccc(-c3cccc4[nH]nc(N)c34)cc2)c1 [Linifanib] + COc1cc2c(Oc3ccc(NC(=O)C4(C(=O)Nc5ccc(F)cc5)CC4)cc3F)ccnc2cc1OCCCN1CCOCC1 [Foretinib] (partner 0.25 µM)
Method in brief: as §1

[4] = compound: Cc1ccc(F)c(NC(=O)Nc2ccc(-c3cccc4[nH]nc(N)c34)cc2)c1 [Linifanib] + Cc1cc(Nc2cc(N3CCN(C)CC3)nc(Sc3ccc(NC(=O)C4CC4)cc3)n2)n[nH]1 [Tozasertib] (partner 0.1 µM)
Method in brief: as §1

[5] = compound: Cc1ccc(F)c(NC(=O)Nc2ccc(-c3cccc4[nH]nc(N)c34)cc2)c1 [Linifanib] + COc1cccc2cc(-c3nc([C@H]4CC[C@H](C(=O)O)CC4)n4ncnc(N)c34)[nH]c12 [OSI-027] (partner 0.5 µM)
Method in brief: as §1

[6] = compound: Cc1ccc(F)c(NC(=O)Nc2ccc(-c3cccc4[nH]nc(N)c34)cc2)c1 [Linifanib] + N=C(N)NC(=N)NCCc1ccccc1 [Phenformin] (partner 250 µM)
Method in brief: as §1

[7] = compound: Cc1ccc(F)c(NC(=O)Nc2ccc(-c3cccc4[nH]nc(N)c34)cc2)c1 [Linifanib]
Method in brief: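 Viability here means nuclei in treated wells divided by nuclei in vehicle wells, reported as the median across plates. Only plates with control CV below 25% and at least one doubling passed. Lung cancer cell lines in 1536-well plates were exposed to five √10-spaced library-drug doses for 5 days and counted from 4× Hoechst images in MetaXpress.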

[8] = compound: Cc1ccc(F)c(NC(=O)Nc2ccc(-c3cccc4[nH]nc(N)c34)cc2)c1 [Linifanib] + C[C@]1(O)C[C@@H](c2nc(-c3ccc4ccc(-c5ccccc5)nc4c3)c3c(N)nccn32)C1 [Linsitinib] (partner 1 µM)
Method in brief: as §1

[9] = compound: Cc1ccc(F)c(NC(=O)Nc2ccc(-c3cccc4[nH]nc(N)c34)cc2)c1 [Linifanib] + CS(=O)(=O)N1CCN(Cc2cc3nc(-c4cccc5[nH]ncc45)nc(N4CCOCC4)c3s2)CC1 [Pictilisib] (partner 1 µM)
Method in brief: as §1

[10] = compound: Cc1ccc(F)c(NC(=O)Nc2ccc(-c3cccc4[nH]nc(N)c34)cc2)c1 [Linifanib] + Cc1nc(NC(=O)N2CCC[C@H]2C(N)=O)sc1-c1ccnc(C(C)(C)C(F)(F)F)c1 [Alpelisib] (partner 2 µM)
Method in brief: as §1

[11] = compound: Cc1ccc(F)c(NC(=O)Nc2ccc(-c3cccc4[nH]nc(N)c34)cc2)c1 [Linifanib] + Nc1nc2[nH]cc(CCc3ccc(C(=O)N[C@@H](CCC(=O)O)C(=O)O)cc3)c2c(=O)[nH]1 [Pemetrexed] (partner 0.2 µM)
Method in brief: as §1

[12] = compound: Cc1ccc(F)c(NC(=O)Nc2ccc(-c3cccc4[nH]nc(N)c34)cc2)c1 [Linifanib] + CC(C)C[C@H](NC(=O)[C@H](Cc1ccccc1)NC(=O)c1cnccn1)B(O)O [Bortezomib] (partner 0.002 µM)
Method in brief: as §1

[13] = compound: Cc1ccc(F)c(NC(=O)Nc2ccc(-c3cccc4[nH]nc(N)c34)cc2)c1 [Linifanib] + CS(=O)(=O)CCNCc1ccc(-c2ccc3ncnc(Nc4ccc(OCc5cccc(F)c5)c(Cl)c4)c3c2)o1 [Lapatinib] (partner 2 µM)
Method in brief: as §1

[14] = compound: Cc1ccc(F)c(NC(=O)Nc2ccc(-c3cccc4[nH]nc(N)c34)cc2)c1 [Linifanib] + C[C@@H](Oc1cc(-c2cnn(C3CCNCC3)c2)cnc1N)c1c(Cl)ccc(F)c1Cl [Crizotinib] (partner 1 µM)
Method in brief: as §1

NCI-H1623
relative viability ([1]; first compound 0.03162 µM): 0.49 | relative viability ([1]; first compound 0.1 µM): 0.493 | relative viability ([1]; first compound 0.3162 µM): 0.471 | relative viability ([2]; first compound 0.03162 µM): 0.463 | relative viability ([2]; first compound 0.1 µM): 0.608 | relative viability ([2]; first compound 0.3162 µM): 0.46 | relative viability ([3]; first compound 0.03162 µM): 0.848 | relative viability ([3]; first compound 0.1 µM): 0.929 | relative viability ([3]; first compound 0.3162 µM): 0.877 | relative viability ([4]; first compound 0.03162 µM): 0.427 | relative viability ([4]; first compound 0.1 µM): 0.434 | relative viability ([4]; first compound 0.3162 µM): 0.417 | relative viability ([5]; first compound 0.03162 µM): 0.437 | relative viability ([5]; first compound 0.1 µM): 0.43 | relative viability ([5]; first compound 0.3162 µM): 0.421 | relative viability ([6]; first compound 0.03162 µM): 0.524 | relative viability ([6]; first compound 0.1 µM): 0.601 | relative viability ([6]; first compound 0.3162 µM): 0.601 | relative viability ([7]; 0.03162 µM): 0.918 | relative viability ([7]; 0.1 µM): 0.891 | relative viability ([7]; 0.3162 µM): 1.04

NCI-H1563
relative viability ([8]; first compound 0.03162 µM): 1.14 | relative viability ([8]; first compound 0.1 µM): 1.33 | relative viability ([8]; first compound 0.3162 µM): 1.08 | relative viability ([1]; first compound 0.03162 µM): 0.558 | relative viability ([1]; first compound 0.1 µM): 0.504 | relative viability ([1]; first compound 0.3162 µM): 0.512 | relative viability ([2]; first compound 0.03162 µM): 0.452 | relative viability ([2]; first compound 0.1 µM): 0.484 | relative viability ([2]; first compound 0.3162 µM): 0.496 | relative viability ([3]; first compound 0.03162 µM): 0.954 | relative viability ([3]; first compound 0.1 µM): 0.968 | relative viability ([3]; first compound 0.3162 µM): 0.887 | relative viability ([9]; first compound 0.03162 µM): 0.669 | relative viability ([9]; first compound 0.1 µM): 0.665 | relative viability ([9]; first compound 0.3162 µM): 0.629 | relative viability ([10]; first compound 0.03162 µM): 0.901 | relative viability ([10]; first compound 0.1 µM): 0.956 | relative viability ([10]; first compound 0.3162 µM): 0.956 | relative viability ([11]; first compound 0.03162 µM): 0.803 | relative viability ([11]; first compound 0.1 µM): 0.911 | relative viability ([11]; first compound 0.3162 µM): 0.692 | relative viability ([12]; first compound 0.03162 µM): 0.952 | relative viability ([12]; first compound 0.1 µM): 0.87 | relative viability ([12]; first compound 0.3162 µM): 0.812 | relative viability ([5]; first compound 0.03162 µM): 0.718 | relative viability ([5]; first compound 0.1 µM): 0.814 | relative viability ([5]; first compound 0.3162 µM): 0.716 | relative viability ([13]; first compound 0.03162 µM): 0.963 | relative viability ([13]; first compound 0.1 µM): 1.05 | relative viability ([13]; first compound 0.3162 µM): 0.913 | relative viability ([6]; first compound 0.03162 µM): 0.669 | relative viability ([6]; first compound 0.1 µM): 0.691 | relative viability ([6]; first compound 0.3162 µM): 0.605 | relative viability ([14]; first compound 0.03162 µM): 0.862 | relative viability ([14]; first compound 0.1 µM): 0.852 | relative viability ([14]; first compound 0.3162 µM): 0.879 | relative viability ([7]; 0.03162 µM): 0.904 | relative viability ([7]; 0.1 µM): 1.04 | relative viability ([7]; 0.3162 µM): 1.02
